Measurements: patent US12344618B2, “Heterotricyclic derivative compound and use of same” (HANMI PHARMACEUTICAL CO., LTD., priority 2019, dated 2025)
Read-outs that look alike come from different tables or passages of the source.

Tests used:
[1] = system: KARPAS-422 (EZH2 Y641N mutation); assay: Cell growth inhibition test, KARPAS-422; type: cell-based; details: KARPAS-422, culture time 7 days, read-out: Cell growth inhibitory activity (GI50, nM) KARPAS-422 (EZH2 Y641N mutation)
[2] = system: Pfeiffer (EZH2 A677G mutation); assay: Cell growth inhibition test, Pfeiffer; type: cell-based; details: Homo sapiens, read-out: Cell growth inhibitory activity (GI50, nM) Pfeiffer (EZH2 A677G mutation)
Protocol: (§1) Each type of the cultured cells was seeded in 6-well plates or 48-96 well plates, and subculture or medium replacement was performed every 3 to 4 days. Next, the cells were subcultured for a total of 7 to 14 days, and then seeded in 96-well plates. 3 to 5 days before the measurement of the effect, the cells were seeded in 96-well plates, and then the absorbance (Tz) on the day of seeding was measured. The absorbance after the reaction was measured by the plate reader device Synergy NeoAlpha (Biotek) using Cell-Titer-Glo Cell Viability Assay (Promega, G7573) according to the attached manual. Based on the absorbance (Tz) measured on the seeding day and the absorbance of each of the DMSO-treated group (C) and the sample-added group (Ti) measured on the day of effect determination, the percentage of cell proliferation inhibition was calculated according to the following Equation 1. [(Ti−Tz)/(C−Tz)]×100 for concentrations for which Ti≥Tz […] for concentrations for which Ti<Tz. [Equation 1]

SU-DHL-4 = assay: Cell growth inhibition test, SU-DHL-4; type: cell-based; details: Homo sapiens, read-out: Cell growth inhibitory activity (GI50, nM) SU-DHL-4
Protocol: (§2) In order to confirm the inhibitory effects of the synthetic compounds against the growth of blood cancer cell lines, evaluation was performed against KARPAS 422, RPMI 8226, KMS-11, JeKo-1, MV-4-11, Mino, Pfeiffer, SU-DHL-4, and RS4; 11 cell lines. A test for the Pfeiffer and SU-DHL-4 cell lines was performed by KYinno Co., Ltd., a test for the RS4; 11 cell line was performed by Shanghai Chempartner Co., Ltd., and a test for the Kasumi-1, MV-4-11, MM.1S, KMS-11, JeKo-1, Mino (ATCC), RPMI 8226 (KCLB), and KARPAS 422 (ECACC) cell lines was performed after purchase.
as §1, with “DMSO at a final concentration of 0.1% or less or a DMSO solution of each of the synthetic compounds was added to media to have the concentration and treatment time described in Table 5 below, and cells were cultured at 37° C. under 5% CO2. Each” for “Each”

RS4;11 = assay: Cell growth inhibition test, RS4;11; type: cell-based; details: Homo sapiens, read-out: Cell growth inhibitory activity (GI50, nM) RS4;11
Protocol: as §2
as §1, with “DMSO at a final concentration of 0.1% or less or a DMSO solution of each of the synthetic compounds was added to media to have the concentration and treatment time described in Table 5 below, and cells were cultured at 37° C. under 5% CO2. Each” for “Each”

MV4-11 = assay: Cell growth inhibition test, MV4-11; type: cell-based; details: Homo sapiens, 240 h; MV4-11, culture time 10 days; read-out: Cell growth inhibitory activity (GI50, nM) MV4-11
Protocol: as §2
as §1, with “DMSO at a final concentration of 0.1% or less or a DMSO solution of each of the synthetic compounds was added to media to have the concentration and treatment time described in Table 5 below, and cells were cultured at 37° C. under 5% CO2. Each” for “Each”

Kasumi-1 = assay: Cell growth inhibition test, Kasumi-1; type: cell-based; details: Homo sapiens, 240 h; Kasumi-1, culture time 10 days; read-out: Cell growth inhibitory activity (GI50, nM) Kasumi-1
Protocol: as §2
as §1, with “DMSO at a final concentration of 0.1% or less or a DMSO solution of each of the synthetic compounds was added to media to have the concentration and treatment time described in Table 5 below, and cells were cultured at 37° C. under 5% CO2. Each” for “Each”

MM.1S = assay: Cell growth inhibition test, MM.1S; type: cell-based; details: Homo sapiens, MM1.S, 264 h, culture time 11 days, read-out: Cell growth inhibitory activity (GI50, nM) MM.1S
Protocol: as §2
as §1, with “DMSO at a final concentration of 0.1% or less or a DMSO solution of each of the synthetic compounds was added to media to have the concentration and treatment time described in Table 5 below, and cells were cultured at 37° C. under 5% CO2. Each” for “Each”

RPMI8226 = assay: Cell growth inhibition test, RPMI8226; type: cell-based; details: Homo sapiens, RPMI-8226, 168 h; RPMI8226, culture time 7 days; read-out: Cell growth inhibitory activity (GI50, nM) RPMI8226
Protocol: as §2
as §1, with “DMSO at a final concentration of 0.1% or less or a DMSO solution of each of the synthetic compounds was added to media to have the concentration and treatment time described in Table 5 below, and cells were cultured at 37° C. under 5% CO2. Each” for “Each”

KMS-11 = assay: Cell growth inhibition test, KMS-11; type: cell-based; details: Homo sapiens, 240 h; KMS-11, culture time 10 days; read-out: Cell growth inhibitory activity (GI50, nM) KMS-11
Protocol: as §2
as §1, with “DMSO at a final concentration of 0.1% or less or a DMSO solution of each of the synthetic compounds was added to media to have the concentration and treatment time described in Table 5 below, and cells were cultured at 37° C. under 5% CO2. Each” for “Each”

Mino = assay: Cell growth inhibition test, Mino; type: cell-based; details: Homo sapiens, 336 h, culture time 14 days, read-out: Cell growth inhibitory activity (GI50, nM) Mino
Protocol: as §2
as §1, with “DMSO at a final concentration of 0.1% or less or a DMSO solution of each of the synthetic compounds was added to media to have the concentration and treatment time described in Table 5 below, and cells were cultured at 37° C. under 5% CO2. Each” for “Each”

JeKo-1 = assay: Cell growth inhibition test, JeKo-1; type: cell-based; details: Homo sapiens, 240 h; JeKo-1, culture time 10 days; read-out: Cell growth inhibitory activity (GI50, nM) JeKo-1
Protocol: as §2
as §1, with “DMSO at a final concentration of 0.1% or less or a DMSO solution of each of the synthetic compounds was added to media to have the concentration and treatment time described in Table 5 below, and cells were cultured at 37° C. under 5% CO2. Each” for “Each”

[3] = Metabolic stability in human liver microsomes; type: in vitro ADME; details: 5 μM compound, 1 mg/mL human liver microsomes, 37° C., NADPH regenerating system
Protocol: (§3) In order to confirm the metabolic stability of the synthetic compounds in the liver, 5 μM test compound and 1 mg/mL human, dog, rat or mouse liver microsomes were allowed to react with each other at 37° C. in the presence of the NADPH regenerating system for 1 hour. After 1 hour, the reaction was terminated and the supernatant obtained by centrifugation was analyzed by HPLC. With the peak value obtained as the analysis result, the residual amount (%) was calculated using the following equation through the peak value of the test compound after 1 hour of the reaction versus the peak value of the test compound at 0 min. Residual amount (%)=(peak value of test compound after 1 hour of reaction/peak value of test compound at 0 min)×100

[4] = Metabolic stability in dog liver microsomes; type: in vitro ADME; details: 5 μM compound, 1 mg/mL dog liver microsomes, 37° C., NADPH regenerating system
Protocol: as §3

[5] = Metabolic stability in rat liver microsomes; type: in vitro ADME; details: 5 μM compound, 1 mg/mL rat liver microsomes, 37° C., NADPH regenerating system
Protocol: as §3

[6] = Metabolic stability in mouse liver microsomes; type: in vitro ADME; details: 5 μM compound, 1 mg/mL mouse liver microsomes, 37° C., NADPH regenerating system
Protocol: as §3

[7] = Mouse pharmacokinetics, oral single dose; type: in vivo; details: male, ICR, mouse, plasma, po, 30 mg/kg, mice (ICR, male), oral single dose 30 mg/kg; for AUC: read-out: Area under oral curve (AUC); for half-life: read-out: Half life T1/2 (converted)
Protocol: Pharmacokinetics of the synthetic compounds as EZH2 inhibitors in mice (ICR, 8-week-old, male) were tested.
The oral administration group was maintained in a fasting state from the day before the test to 4 hours after administration of the test compound. On the day of administration of the test compound, the weight of each animal was measured and each synthetic compound was formulated using a selected solvent based on 30 mg/kg (10 mL/kg). Each test compound was administered orally in a single dose, a certain amount of the blood was taken at a predetermined time, plasma was isolated therefrom, and the concentration of each test compound in the plasma was analyzed using LC-MS/MS (Waters UPLC H-Class/Xevo TQ; Waters, USA). Pharmacokinetic coefficients were calculated by a linear-log trapezoidal summation formula using a non-compartment analysis of the Phoenix™ WinNonlin (Certara, USA) program through the plasma concentration curve over time.

EZH1 = target: T1, EZH1 (Homo sapiens, UniProt Q92800); assay: Inhibitory activity against EZH1 methyltransferase (radiometric scintillation proximity assay); type: biochemical; details: 2.3 nmol/L enzyme, 90 minutes, room temperature;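 further: Read-out is methylation of a substrate peptide, captured on streptavidin-coated SPA beads and counted by scintillation, in Tris-HCl buffer at pH 8.0 with 1% DMSO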
T1 construct: purchased Reaction Biology Corp. (contract assay)
Protocol: The inhibitory activities of the synthetic compounds against EZH1 or EZH2 methyltransferase were measured. The experiment was conducted by Reaction Biology Corp., and the activity of EZH1 or EZH2 was measured using a radiometric scintillation proximity assay. […] The reaction buffer consisted of 50 mmol/L Tris-HCl (pH 8.0), 50 mmol/L NaCl, 1 mmol/L EDTA, 1 mmoL/L DTT, 1 mmol/L PMSF, and 1% DMSO. Trichloroacetic acid was added to terminate the reaction, and PVT streptavidin-coated SPA beads were added to each reaction solution, followed by further reaction at room temperature for 1 hour again. The methylation value of the substrate peptide was measured using the TopCount NXT plate reader.

EZH2 = EZH2 (Homo sapiens, UniProt Q15910); assay: Inhibitory activity against EZH2 methyltransferase (radiometric scintillation proximity assay); details: Enzyme inhibitory activity (IC50, nM) EZH2, 2.3 nmol/L enzyme, 90 minutes, room temperature;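 further: Read-out is substrate peptide methylation, captured on streptavidin-coated SPA beads and counted by scintillation, with the reaction run in Tris-HCl buffer at pH 8.0 containing 1% DMSO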
[8] = Homo sapiens, KARPAS-422, 168 h

Sequence of EZH2 (Q15910 whole entry): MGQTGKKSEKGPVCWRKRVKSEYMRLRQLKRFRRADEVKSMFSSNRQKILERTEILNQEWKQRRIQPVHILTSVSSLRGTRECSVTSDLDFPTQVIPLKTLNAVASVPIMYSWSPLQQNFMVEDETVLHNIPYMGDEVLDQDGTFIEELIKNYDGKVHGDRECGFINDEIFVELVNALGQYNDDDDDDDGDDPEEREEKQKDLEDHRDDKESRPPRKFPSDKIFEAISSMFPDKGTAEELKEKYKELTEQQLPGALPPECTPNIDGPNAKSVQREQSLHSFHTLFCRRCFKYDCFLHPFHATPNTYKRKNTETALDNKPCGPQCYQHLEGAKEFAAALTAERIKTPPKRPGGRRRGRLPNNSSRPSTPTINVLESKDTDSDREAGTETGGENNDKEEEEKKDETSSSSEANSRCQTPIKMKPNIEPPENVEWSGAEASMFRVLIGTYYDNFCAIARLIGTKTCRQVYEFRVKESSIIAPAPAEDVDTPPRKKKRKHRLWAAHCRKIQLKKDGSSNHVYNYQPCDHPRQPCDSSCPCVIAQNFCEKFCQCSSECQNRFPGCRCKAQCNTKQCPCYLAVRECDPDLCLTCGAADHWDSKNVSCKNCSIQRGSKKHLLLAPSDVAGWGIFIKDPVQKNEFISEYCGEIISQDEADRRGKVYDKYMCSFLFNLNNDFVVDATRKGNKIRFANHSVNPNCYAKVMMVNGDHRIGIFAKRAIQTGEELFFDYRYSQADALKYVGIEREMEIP
Sequence of EZH2 (O75530 whole entry partner): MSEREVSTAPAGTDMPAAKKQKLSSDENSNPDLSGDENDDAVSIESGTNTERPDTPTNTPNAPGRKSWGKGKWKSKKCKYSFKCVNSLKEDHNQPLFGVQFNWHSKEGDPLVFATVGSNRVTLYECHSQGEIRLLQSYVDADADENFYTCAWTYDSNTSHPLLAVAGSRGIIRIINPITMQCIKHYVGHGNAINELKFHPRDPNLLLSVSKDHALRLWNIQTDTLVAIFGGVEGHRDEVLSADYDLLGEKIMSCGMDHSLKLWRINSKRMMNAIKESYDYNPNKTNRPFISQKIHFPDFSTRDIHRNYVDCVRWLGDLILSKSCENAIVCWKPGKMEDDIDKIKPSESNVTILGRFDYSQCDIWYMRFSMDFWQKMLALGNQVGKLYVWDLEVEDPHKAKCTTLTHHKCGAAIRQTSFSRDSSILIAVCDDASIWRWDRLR
Sequence of EZH2 (Q15022 whole entry partner): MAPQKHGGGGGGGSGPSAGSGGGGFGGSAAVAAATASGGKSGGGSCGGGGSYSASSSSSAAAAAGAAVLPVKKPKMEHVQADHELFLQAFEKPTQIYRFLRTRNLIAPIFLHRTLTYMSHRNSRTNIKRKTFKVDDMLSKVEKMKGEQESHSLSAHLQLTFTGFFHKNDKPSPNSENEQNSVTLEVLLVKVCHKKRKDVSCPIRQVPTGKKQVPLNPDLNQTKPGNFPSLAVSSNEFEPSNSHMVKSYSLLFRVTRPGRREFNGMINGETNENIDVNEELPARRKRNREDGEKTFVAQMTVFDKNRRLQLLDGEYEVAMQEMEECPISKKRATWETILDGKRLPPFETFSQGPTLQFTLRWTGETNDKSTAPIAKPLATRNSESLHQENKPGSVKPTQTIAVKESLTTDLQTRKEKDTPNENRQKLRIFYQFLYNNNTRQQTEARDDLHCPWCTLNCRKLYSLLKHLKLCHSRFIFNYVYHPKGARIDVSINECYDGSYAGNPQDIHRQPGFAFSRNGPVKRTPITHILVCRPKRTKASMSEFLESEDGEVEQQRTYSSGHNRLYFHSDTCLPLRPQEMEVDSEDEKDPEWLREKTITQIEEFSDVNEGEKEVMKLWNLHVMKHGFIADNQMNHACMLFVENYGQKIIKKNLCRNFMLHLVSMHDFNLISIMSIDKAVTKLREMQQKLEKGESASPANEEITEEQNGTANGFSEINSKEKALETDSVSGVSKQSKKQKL
Sequence of EZH2 (Q09028 whole entry partner): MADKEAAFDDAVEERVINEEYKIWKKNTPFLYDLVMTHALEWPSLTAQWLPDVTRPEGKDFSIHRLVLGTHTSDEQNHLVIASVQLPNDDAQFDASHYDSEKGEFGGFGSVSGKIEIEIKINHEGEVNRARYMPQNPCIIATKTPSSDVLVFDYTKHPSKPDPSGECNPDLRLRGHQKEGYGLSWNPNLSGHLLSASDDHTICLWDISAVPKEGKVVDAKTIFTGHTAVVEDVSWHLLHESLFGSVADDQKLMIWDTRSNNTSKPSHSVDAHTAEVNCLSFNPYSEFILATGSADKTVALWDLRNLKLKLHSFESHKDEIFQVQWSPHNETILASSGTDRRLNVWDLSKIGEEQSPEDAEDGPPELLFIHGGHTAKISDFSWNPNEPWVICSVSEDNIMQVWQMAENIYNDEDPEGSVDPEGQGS
Sequence of EZH2 (Q6ZN18 whole entry partner): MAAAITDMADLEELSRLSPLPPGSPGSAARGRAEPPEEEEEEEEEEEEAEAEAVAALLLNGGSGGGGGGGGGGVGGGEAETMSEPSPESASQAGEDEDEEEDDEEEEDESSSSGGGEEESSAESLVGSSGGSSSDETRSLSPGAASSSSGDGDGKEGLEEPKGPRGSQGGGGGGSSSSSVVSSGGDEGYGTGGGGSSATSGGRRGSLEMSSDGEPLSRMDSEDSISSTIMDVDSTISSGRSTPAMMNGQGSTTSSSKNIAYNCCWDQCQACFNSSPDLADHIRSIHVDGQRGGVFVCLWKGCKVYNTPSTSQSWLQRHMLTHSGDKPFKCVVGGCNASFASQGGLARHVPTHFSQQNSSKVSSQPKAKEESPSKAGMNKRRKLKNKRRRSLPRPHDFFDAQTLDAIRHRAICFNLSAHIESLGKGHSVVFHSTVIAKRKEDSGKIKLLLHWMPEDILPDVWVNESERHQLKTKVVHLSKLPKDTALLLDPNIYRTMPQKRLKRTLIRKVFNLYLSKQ
T1 sequence (Q92800 whole entry): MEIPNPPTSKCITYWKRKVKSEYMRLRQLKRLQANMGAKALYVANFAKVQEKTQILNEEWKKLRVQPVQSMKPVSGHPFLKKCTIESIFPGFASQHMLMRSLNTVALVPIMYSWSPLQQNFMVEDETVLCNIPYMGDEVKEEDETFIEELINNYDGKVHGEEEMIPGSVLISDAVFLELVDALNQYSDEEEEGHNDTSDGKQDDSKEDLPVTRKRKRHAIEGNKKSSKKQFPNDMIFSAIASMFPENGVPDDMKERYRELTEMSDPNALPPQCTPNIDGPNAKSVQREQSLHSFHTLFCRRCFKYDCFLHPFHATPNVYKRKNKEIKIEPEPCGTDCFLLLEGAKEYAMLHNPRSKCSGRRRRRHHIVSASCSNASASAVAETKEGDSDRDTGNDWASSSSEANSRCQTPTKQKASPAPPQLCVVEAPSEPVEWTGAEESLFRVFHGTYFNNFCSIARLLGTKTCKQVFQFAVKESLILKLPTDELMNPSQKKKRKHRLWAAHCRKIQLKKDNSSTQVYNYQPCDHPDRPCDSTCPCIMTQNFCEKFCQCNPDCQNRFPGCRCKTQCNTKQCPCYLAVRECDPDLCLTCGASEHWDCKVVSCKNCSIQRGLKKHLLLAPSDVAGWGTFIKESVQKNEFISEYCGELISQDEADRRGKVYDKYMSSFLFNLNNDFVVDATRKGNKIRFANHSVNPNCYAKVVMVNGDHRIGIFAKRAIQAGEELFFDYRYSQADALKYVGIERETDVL
T1 sequence (O75530 whole entry partner): as the sequence (O75530 whole entry partner) above
T1 sequence (Q15022 whole entry partner): as the sequence (Q15022 whole entry partner) above
T1 sequence (Q09028 whole entry partner): as the sequence (Q09028 whole entry partner) above
T1 sequence (Q6ZN18 whole entry partner): as the sequence (Q6ZN18 whole entry partner) above

| GI50 [1] [nM] | GI50 (SU-DHL-4) [nM] | GI50 (RS4;11) [nM] | GI50 (MV4-11) [nM] | GI50 (MM.1S) [nM] | GI50 (RPMI8226) [nM] | Residual amount (%) of test compound after 1 hour of reaction, Human [3] [%] | Residual amount (%) of test compound after 1 hour of reaction, Dog [4] [%] | Residual amount (%) of test compound after 1 hour of reaction, Rat [5] [%] | Residual amount (%) of test compound after 1 hour of reaction, Mouse [6] [%] | AUC [7] [ng·h/mL] | half-life [7] [h] | IC50 (EZH1) [nM] | GI50 [1, 8] [nM] | IC50 (EZH2) [nM] | Compound | GI50 [2] [nM] | GI50 (Kasumi-1) [nM] | GI50 (KMS-11) [nM] | GI50 (Mino) [nM] | GI50 (JeKo-1) [nM] |
| --- | --- | --- | --- | --- | --- | --- | --- | --- | --- | --- | --- | --- | --- | --- | --- | --- | --- | --- | --- | --- |
| – | – | – | – | – | – | 82 | – | – | 79 | 1040 | – | 23 to 35 | 1.8 to 9.6 | 1.8 to 2.3 | COc1cc(C)[nH]c(=O)c1CN1CCc2c(Cl)c3c(c(C)c2C1=O)OC(C)([C@H]1CC[C@H](N(C)C)CC1)O3 (stereo partly drawn) [Compound 13, 9-chloro-2-(trans-4-(dimethylamino)cyclohexyl)-6-((4-methoxy-6-methyl-2-oxo-1,2-dihydropyridin-3-yl)methyl)-2,4-dimethyl-7,8-dihydro-[1,3]dioxolo[4,5-g]isoquinolin-5(6H)-one] | 0.27 | – | – | – | – |
| – | – | – | – | – | – | 62 | – | – | 80 | 3650 | – | 9.7 to 30 | 3.2 to 8.4 | 1.2 to 6.2 | Cc1cc(C)c(CN2CCc3c(C)c4c(c(C)c3C2=O)OC(C)([C@H]2CC[C@H](N(C)C)CC2)O4)c(=O)[nH]1 (stereo partly drawn) [Compound 39, 6-((4,6-dimethyl-2-oxo-1,2-dihydropyridin-3-yl)methyl)-2-(trans-4-(dimethylamino)cyclohexyl)-2,4,9-trimethyl-7,8-dihydro-[1,3]dioxolo[4,5-g]isoquinolin-5(6H)-one] | 0.76 to 0.99 | – | – | – | – |

More lines, now with the values behind:

| Compound | GI50 [1] [nM] | GI50 (SU-DHL-4) [nM] | GI50 (RS4;11) [nM] | GI50 (MV4-11) [nM] | GI50 (MM.1S) [nM] | GI50 (RPMI8226) [nM] | Residual amount (%) of test compound after 1 hour of reaction, Human [3] [%] | Residual amount (%) of test compound after 1 hour of reaction, Dog [4] [%] | Residual amount (%) of test compound after 1 hour of reaction, Rat [5] [%] | Residual amount (%) of test compound after 1 hour of reaction, Mouse [6] [%] | AUC [7] [ng·h/mL] | half-life [7] [h] | IC50 (EZH1) [nM] | GI50 [1, 8] [nM] | IC50 (EZH2) [nM] | GI50 [2] [nM] | GI50 (Kasumi-1) [nM] | GI50 (KMS-11) [nM] | GI50 (Mino) [nM] | GI50 (JeKo-1) [nM] |
| --- | --- | --- | --- | --- | --- | --- | --- | --- | --- | --- | --- | --- | --- | --- | --- | --- | --- | --- | --- | --- |
| Cc1cc(C)c(CN2CCc3c(Br)c4c(c(C)c3C2=O)OC(C)([C@H]2CC[C@H](N(C)C)CC2)O4)c(=O)[nH]1 (single isomer, unassigned) [Compound 49, 9-bromo-6-((4,6-dimethyl-2-oxo-1,2-dihydropyridin-3-yl)methyl)-2-(trans-4-(dimethylamino)cyclohexyl)-2,4-dimethyl-7,8-dihydro-[1,3]dioxolo[4,5-g]isoquinolin-5(6H)-one] | 1.2 to 9.7 | 11 | 24 | 3.9 | 1.4 | 6.4 | 67 | 74 | 84 | 52 | 9960 | 2.9 | – | – | – | 0.21 | 51 | 8.1 | 2 | 42 |
| CCN(c1cc(-c2ccc(CN3CCOCC3)cc2)cc(C(=O)NCc2c(C)cc(C)[nH]c2=O)c1C)C1CCOCC1 [Control A, N-((4,6-dimethyl-2-oxo-1,2-dihydropyridin-3-yl)methyl)-5-(ethyl(tetrahydro-2H-pyran-4-yl)amino)-4-methyl-4′-(morpholinomethyl)-[1,1′-biphenyl]-3-carboxamide] | – | 281 | 932 | 220 | 204 | 315 | – | 14 | – | – | 4880 | 0.6 | – | – | – | – | > 1000 | 554 | 225 | 3580 |
| Cc1cc(C)c(CNC(=O)c2cc(Cl)c3c(c2C)O[C@@](C)([C@H]2CC[C@H](N(C)C)CC2)O3)c(=O)[nH]1 [Control B] | – | 21 | 62 | 6.1 | 2.3 | 7.8 | 65 | 83 | 81 | 50 | 3420 to 5000 | 1 | – | 1.3 to 15 | – | 0.57 | 324 | 25 | 2.5 | 71 |
